One test concerns the target T1, KDR tyrosine kinase (Homo sapiens, UniProt P35968).
T1 construct: a DNA fragment encoding most of the cytoplasmic domain, commencing with methionine 806 and including the termination codon; made in house; host or cells: Sf9 insect cells (recombinant baculovirus)
Kind of test: In vitro enzyme assay (ELISA), Test (a), KDR. In kind it is biochemical. To be noted: ATP 8 μM, read-out: IC50 versus KDR tyrosine kinase. On the procedure:
(§1) The ability of test compounds to inhibit the phosphorylation of a tyrosine containing polypeptide substrate by the tyrosine kinase enzymes PDGFRα, PDGFRβ and KDR was assessed using conventional ELISA assays. DNA encoding the PDGFRα, PDGFRβ or KDR receptor cytoplasmic domains may be obtained by total gene synthesis (International Biotechnology Lab., 1987, 5(3), 19-25) or by cloning. The DNA fragments may be expressed in a suitable expression system to obtain polypeptide with tyrosine kinase activity. For example, PDGFRα, PDGFRβ and KDR receptor cytoplasmic domains, obtained by expression of recombinant protein in insect cells, can be shown to display intrinsic tyrosine kinase activity. In the case of the VEGF receptor KDR (Genbank Accession No. L04947), a DNA fragment encoding most of the cytoplasmic domain, commencing with methionine 806 and including the termination codon may be cloned into a baculovirus transplacement vector [for example pAcYM1 (see The Baculovirus Expression System: A Laboratory Guide, L. A. King and R. D. Possee, Chapman and Hall, 1992) or pAc360 or pBlueBacHis (available from Invitrogen Corporation)]. This recombinant construct may be co-transfected into insect cells [for example Spodoptera frugiperda 21(Sf21) or Spodoptera frugiperda 9(Sf9)] with viral DNA (for example Pharmingen BaculoGold) to prepare recombinant baculovirus. Details of the methods for the assembly of recombinant DNA molecules and the preparation and use of recombinant baculovirus can be found in standard texts, for example Sambrook et al., 1989, Molecular cloning—A Laboratory Manual, 2nd edition, Cold Spring Harbour Laboratory Press and O'Reilly et al., 1992, Baculovirus Expression Vectors—A Laboratory Manual, W. H. Freeman and Co, New York).
For expression, Sf9 cells were infected with plaque-pure KDR recombinant virus and harvested 48 hours later. […]

A further test has as its target T2, PDGFRα tyrosine kinase (Homo sapiens, UniProt P16234).
T2 construct: PDGFRα, PDGFRβ and KDR receptor cytoplasmic domains, obtained by expression of recombinant protein in insect cells; purchased Upstate Biotechnology Inc. 14-467; host or cells: Sf9 insect cells
Briefly: In vitro enzyme assay (ELISA), Test (a), PDGFRα. In kind it is biochemical. To be noted: ATP 14 μM, read-out: IC50 versus PDGFRα tyrosine kinase. The method, then:
as §1, with “Details of the methods for the assembly of recombinant DNA molecules and the preparation and use of recombinant baculovirus can be found in standard texts, for example Sambrook et al., 1989, Molecular cloning—A Laboratory Manual, 2nd edition, Cold Spring Harbour Laboratory Press and O'Reilly et al., 1992, Baculovirus Expression Vectors—A Laboratory Manual, W. H. Freeman and Co, New York).” left out
On the technique in general: ELISA stands for enzyme-linked immunosorbent assay.

pIC50: −log10 of the molar value.

T1 sequence (P35968 786-1356 limits assumed): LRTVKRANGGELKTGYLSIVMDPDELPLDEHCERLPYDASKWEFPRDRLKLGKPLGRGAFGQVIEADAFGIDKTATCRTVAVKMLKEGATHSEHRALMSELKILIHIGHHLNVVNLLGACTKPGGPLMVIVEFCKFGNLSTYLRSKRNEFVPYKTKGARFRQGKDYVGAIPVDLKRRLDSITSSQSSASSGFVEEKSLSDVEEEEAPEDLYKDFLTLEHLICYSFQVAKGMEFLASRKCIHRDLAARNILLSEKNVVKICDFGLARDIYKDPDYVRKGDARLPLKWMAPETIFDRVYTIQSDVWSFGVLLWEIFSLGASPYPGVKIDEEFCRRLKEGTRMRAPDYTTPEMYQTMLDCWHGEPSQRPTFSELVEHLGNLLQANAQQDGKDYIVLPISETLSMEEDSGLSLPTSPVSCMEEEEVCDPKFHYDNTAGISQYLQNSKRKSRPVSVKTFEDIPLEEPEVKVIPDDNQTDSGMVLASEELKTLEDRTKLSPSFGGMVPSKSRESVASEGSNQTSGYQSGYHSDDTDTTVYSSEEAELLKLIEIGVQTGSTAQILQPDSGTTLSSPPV
T2 sequence (P16234 550-1089 limits assumed): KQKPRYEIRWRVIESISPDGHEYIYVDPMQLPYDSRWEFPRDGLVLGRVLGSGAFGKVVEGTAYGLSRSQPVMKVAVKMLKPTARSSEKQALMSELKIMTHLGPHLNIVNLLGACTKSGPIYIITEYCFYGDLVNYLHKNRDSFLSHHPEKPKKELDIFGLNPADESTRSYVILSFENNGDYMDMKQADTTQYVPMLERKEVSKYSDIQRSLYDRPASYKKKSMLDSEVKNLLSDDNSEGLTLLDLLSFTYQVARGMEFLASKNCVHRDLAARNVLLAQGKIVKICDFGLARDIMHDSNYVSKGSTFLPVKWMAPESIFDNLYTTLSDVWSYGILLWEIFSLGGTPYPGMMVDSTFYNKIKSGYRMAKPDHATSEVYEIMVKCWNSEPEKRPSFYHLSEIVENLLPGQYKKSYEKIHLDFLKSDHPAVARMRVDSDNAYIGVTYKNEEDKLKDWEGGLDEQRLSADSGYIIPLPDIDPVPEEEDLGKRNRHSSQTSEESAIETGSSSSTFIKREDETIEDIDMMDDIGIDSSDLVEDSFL

`COc1cc2ncnc(Oc3cnn(CC(=O)Nc4cccc5c4OCO5)c3)c2cc1OC` [Example 2, N-(2,3-methylenedioxyphenyl)-2-[4-(6,7-dimethoxyquinazolin-4-yloxy)pyrazol-1-yl]acetamide]: the pIC50 – broadly, −log10 of the IC50, conventionally taken in molar units – was ~9.00 at KDR tyrosine kinase and ~7.00 at PDGFRα tyrosine kinase.

These data come from US20090036474A1, “Quinazoline derivatives for use against cancer” (priority 2004, published 2009).
